Data taken from ChEMBL document CHEMBL1201862, “PubChem BioAssay data set” (2004).
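Step 1: Grow cells in 96-well plates. Step 2: Expose to compound for 48 hours at 5 concentrations. Step 3: Interpolate endpoints linearly; if unreached, use highest concentration. GI50 is the concentration that inhibits growth by half.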 The source made the active and inactive calls. No stated cut-off is given here; in the data, active = GI50 up to about 1.1 µM and inactive = higher.

How the values were obtained:
Assay in all cases: growth of human tumour cells (NCI), 48 h
A549 = system: A549
OVCAR-8 = system: OVCAR-8
EKVX = system: EKVX
A498 = system: A498
SF-539 = system: SF-539
SNB-19 = system: SNB-19
UO-31 = system: UO-31
RXF 393 = system: RXF 393
LOX IMVI = system: LOX IMVI
SK-OV-3 = system: SK-OV-3
SNB-75 = system: SNB-75
HOP-62 = system: HOP-62
OVCAR-5 = system: OVCAR-5
COLO 205 = system: COLO 205
SF-268 = system: SF-268
MDA-MB-231 = system: MDA-MB-231
SW-620 = system: SW-620
NCI-H226 = system: NCI-H226
NCI-H23 = system: NCI-H23
UACC-62 = system: UACC-62

Measured: GI50

CC(C)CCCC(C)[C@H]1CC[C@H]2[C@@H]3CC[C@H]4C[C@@H](CCC=C(c5cc(Cl)c(O)c(C(=O)O)c5)c5cc(Cl)c(O)c(C(=O)O)c5)CC[C@]4(C)[C@H]3CC[C@]12C (stereo not given in full)
inactive: A549 > 50 µM | OVCAR-8 > 50 µM | EKVX > 50 µM | A498 > 50 µM | SF-539 > 50 µM | SNB-19 > 50 µM | UO-31 6.03 µM | RXF 393 > 50 µM | LOX IMVI > 50 µM | SK-OV-3 > 50 µM | SNB-75 > 50 µM | HOP-62 > 50 µM | OVCAR-5 > 50 µM | COLO 205 > 50 µM | SF-268 > 50 µM | MDA-MB-231 > 50 µM | SW-620 > 50 µM | NCI-H226 > 50 µM | NCI-H23 > 50 µM | UACC-62 > 50 µM

CN1CCC2(CC1)SC[C@H]1C(=O)N(c3ccc(Cl)cc3)C(=O)N12
inactive: A549 > 100 µM | OVCAR-8 > 100 µM | EKVX > 100 µM | A498 24.2 µM | SF-539 > 100 µM | SNB-19 > 100 µM | UO-31 > 100 µM | RXF 393 > 100 µM | LOX IMVI > 100 µM | SK-OV-3 > 100 µM | SNB-75 > 100 µM | HOP-62 > 100 µM | OVCAR-5 > 100 µM | COLO 205 > 100 µM | SF-268 > 100 µM | MDA-MB-231 > 100 µM | SW-620 > 100 µM | NCI-H226 > 100 µM | NCI-H23 > 100 µM | UACC-62 > 100 µM
